Experiment: mn = molality of the nth substance listed, in mol/kg
Conditions: 350 kPa, Liquid, Extra sensitive DSC

NC(CO)C(=O)O (configuration not stated) [(.+-.)-serine] + O
apparent molar heat capacity [J/K/mol]
Conditions | m1 = 0.015 | m1 = 0.0308 | m1 = 0.0509 | m1 = 0.0807 | m1 = 0.1251 | m1 = 0.2505
278.15 K | 50 | 53.4 | 56.4 | 56.6 | 57.8 | 68
283.15 K | 71 | 74.1 | 76.7 | 76.7 | 77.7 | 86.3
288.15 K | 87 | 90.3 | 92.6 | 92.6 | 93.2 | 101
293.15 K | 101 | 103.7 | 105.7 | 105.8 | 106.1 | 113.1
298.15 K | 112 | 114.5 | 116.5 | 116.5 | 116.7 | 123
303.15 K | 121 | 123.9 | 125.8 | 125.7 | 125.7 | 131.4
308.15 K | 130 | 132.2 | 133.9 | 133.6 | 133.4 | 138.6
313.15 K | 137 | 139.3 | 140.7 | 140.4 | 140.2 | 144.9
318.15 K | 143 | 145.2 | 146.5 | 146.2 | 145.8 | 150.2
323.15 K | 149 | 150.3 | 151.6 | 151.3 | 150.9 | 154.9
328.15 K | 154 | 155 | 156.2 | 155.8 | 155.3 | 158.9
333.15 K | 158 | 159.4 | 160.4 | 159.9 | 159.3 | 162.6
338.15 K | 162 | 163.3 | 164.2 | 163.6 | 162.9 | 165.92
343.15 K | 166 | 166.3 | 167.2 | 166.6 | 165.9 | 168.74
348.15 K | 168 | 169 | 170.1 | 169.5 | 168.8 | 171.27
353.15 K | 170 | 171.6 | 172.5 | 172.1 | 171.2 | 173.56
358.15 K | 172 | 173.7 | 174.6 | 174 | 173.1 | 175.45
363.15 K | 174 | 175.7 | 176.6 | 176.2 | 175.3 | 177.16
368.15 K | 175 | 177.9 | 178.6 | 178.4 | 177 | 178.66
373.15 K | 177 | 179.9 | 180.5 | 179.7 | 178.2 | 179.8
378.15 K | 177 | 180.9 | 181.3 | 180.7 | 179.3 | 180.67
383.15 K | 177 | 181.7 | 182.2 | 181.5 | 180.2 | 181.46
388.15 K | 175 | 182.6 | 183 | 182.2 | 180.9 | 181.91
393.15 K | 173 | 183.3 | 183.3 | 182.8 | 181.6 | 182.2

N[C@H](CO)C(=O)O [(R)-(-)-serine] + O
apparent molar heat capacity [J/K/mol]
Conditions | m1 = 0.0151 | m1 = 0.0301 | m1 = 0.0501 | m1 = 0.08 | m1 = 0.1251 | m1 = 0.2505 | m1 = 0.35
278.15 K | 54.5 | 55.7 | 56.5 | 58.3 | 60.7 | 66.74 | 71.19
283.15 K | 75.2 | 76.1 | 76.8 | 78.4 | 80.6 | 85.06 | 89.13
288.15 K | 91.1 | 92.2 | 92.8 | 94.4 | 96.3 | 100.09 | 103.68
293.15 K | 104.3 | 105.4 | 106.1 | 107.6 | 109.2 | 112.47 | 115.73
298.15 K | 114.8 | 116.1 | 116.8 | 118.3 | 119.8 | 122.69 | 125.65
303.15 K | 123.8 | 125.6 | 126.3 | 127.5 | 128.8 | 131.45 | 134.16
308.15 K | 132.3 | 133.5 | 134.1 | 135.4 | 136.6 | 138.97 | 141.5
313.15 K | 139.7 | 140.5 | 141 | 142.1 | 143.3 | 145.58 | 147.86
318.15 K | 145.3 | 146.2 | 146.7 | 147.9 | 149 | 151.1 | 153.28
323.15 K | 150 | 151.2 | 151.8 | 153 | 154.1 | 156.06 | 158.13
328.15 K | 155 | 156 | 156.5 | 157.5 | 158.6 | 160.5 | 162.4
333.15 K | 159 | 160.2 | 160.7 | 161.7 | 162.6 | 164.4 | 166.3
338.15 K | 163 | 163.7 | 164.2 | 165.2 | 166.2 | 167.9 | 169.76
343.15 K | 166 | 167 | 167.4 | 168.3 | 169.2 | 170.9 | 172.7
348.15 K | 169 | 170.1 | 170.4 | 171.1 | 172 | 173.7 | 175.4
353.15 K | 171 | 172.2 | 172.6 | 173.6 | 174.4 | 176.1 | 177.8
358.15 K | 174 | 174.3 | 174.9 | 175.8 | 176.7 | 178.3 | 180
363.15 K | 176 | 176.2 | 176.7 | 177.7 | 178.5 | 180.2 | 181.8
368.15 K | 177 | 177.8 | 178.2 | 179.2 | 180.1 | 181.7 | 183.4
373.15 K | 178 | 179.3 | 179.6 | 180.5 | 181.4 | 183.1 | 184.7
378.15 K | 180 | 180.4 | 180.7 | 181.6 | 182.5 | 184.2 | 185.8
383.15 K | 181 | 181 | 181.4 | 182.4 | 183.3 | 185.2 | 186.8
388.15 K | 181 | 182 | 182.1 | 183 | 184 | 186 | 187.4
393.15 K | 182 | 182 | 182.5 | 183.5 | 184.4 | 186.5 | 187.9
